Laboratory results as given in PubChem BioAssay (NCI).
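Cells were grown in 96-well plates and exposed to each compound for 48 hours at five concentrations; endpoints were interpolated linearly between bracketing concentrations, or set to the highest concentration if not reached. GI50 = concentration required for 50% inhibition of growth. TGI marks complete inhibition of growth.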

How the values were obtained:
Assay in all cases: NCI anticancer screen, dose series, 48 h
[1] = system: OVCAR-8 ovarian
[2] = system: HOP-62 NSCLC
[3] = system: NCI/ADR-RES ovarian
[4] = system: SN12C renal
[5] = system: CCRF-CEM leukemia
[6] = system: NCI-H23 lung
[7] = system: MALME-3M melanoma
[8] = system: SK-MEL-28 melanoma
[9] = system: HT29 colon
[10] = system: MDA-MB-231 breast
[11] = system: SF-295 CNS
[12] = system: MCF7 breast
[13] = system: OVCAR-5 ovarian
[14] = system: HCT-15 colon
[15] = system: NCI-H226 lung
[16] = system: T-47D breast
[17] = system: SW-620 colon
[18] = system: M14 melanoma
[19] = system: NCI-H460 lung
[20] = system: K-562 leukemia
[21] = system: UACC-62 melanoma
[22] = system: LOX IMVI melanoma
[23] = system: HCT-116 colon
[24] = system: RPMI-8226 leukemia
[25] = system: COLO 205 colon
[26] = system: SF-268 CNS
[27] = system: MDA-MB-435
[28] = system: 786-0 renal
[29] = system: HCC-2998 colon
[30] = system: ACHN renal
[31] = system: SK-MEL-5 melanoma
[32] = system: OVCAR-4 ovarian
[33] = system: OVCAR-3 ovarian
[34] = system: UACC-257 melanoma
[35] = system: PC-3 prostate
[36] = system: SK-MEL-2 melanoma
[37] = system: A498 renal
[38] = system: RXF 393 renal
[39] = system: KM12 colon
[40] = system: SR leukemia
[41] = system: NCI-H522 lung
[42] = system: SNB-75 CNS
[43] = system: IGROV1 ovarian
[44] = system: BT-549 breast
[45] = system: SF-539 CNS
[46] = system: DU-145 prostate
[47] = system: SNB-19 CNS
[48] = system: TK-10 renal
[49] = system: MOLT-4 leukemia
[50] = system: A549 NSCLC
[51] = system: HS 578T breast
[52] = system: U251 CNS
[53] = system: HOP-92 NSCLC
[54] = system: EKVX NSCLC
[55] = system: SK-OV-3 ovarian
[56] = system: CAKI-1 renal
[57] = system: UO-31 renal
[58] = system: HL-60(TB) leukemia

O=C(CSc1nc2ccc([N+](=O)[O-])cc2[nH]1)Nc1cccc(Cl)c1
GI50 [1]: 3.02 µM
TGI [1]: > 39.1 µM
GI50 [2]: 2.79 µM
TGI [2]: 13 µM
GI50 [3]: 2.41 µM
TGI [3]: 9.13 µM
GI50 [4]: 2.46 µM
TGI [4]: 10.8 µM
GI50 [5]: 3.1 µM
TGI [5]: > 100 µM
GI50 [6]: 2.26 µM
TGI [6]: 9.3 µM
GI50 [7]: 1.87 µM
TGI [7]: 8.17 µM
GI50 [8]: 2.68 µM
TGI [8]: 13.1 µM
GI50 [9]: 2.75 µM
TGI [9]: 10.7 µM
GI50 [10]: 2.12 µM
TGI [10]: 6.55 µM
GI50 [11]: 2.07 µM
TGI [11]: 6.8 µM
GI50 [12]: 2.41 µM
TGI [12]: 10.5 µM
GI50 [13]: 2.7 µM
TGI [13]: 13.4 µM
GI50 [14]: 3.06 µM
TGI [14]: 15 µM
GI50 [15]: 2.38 µM
TGI [15]: 9.93 µM
GI50 [16]: 1.55 µM
TGI [16]: 18.9 µM
GI50 [17]: 3.38 µM
TGI [17]: 19.8 µM
GI50 [18]: 3.06 µM
TGI [18]: 13.6 µM
GI50 [19]: 3.22 µM
TGI [19]: 13.1 µM
GI50 [20]: 2.74 µM
TGI [20]: > 100 µM
GI50 [21]: 1.59 µM
TGI [21]: 10.3 µM
GI50 [22]: 3.05 µM
TGI [22]: 13 µM
GI50 [23]: 2.81 µM
TGI [23]: 11.7 µM
GI50 [24]: 1.66 µM
TGI [24]: > 27.8 µM
GI50 [25]: 1.92 µM
TGI [25]: 4.27 µM
GI50 [26]: 3.04 µM
TGI [26]: 21.8 µM
GI50 [27]: 2.7 µM
TGI [27]: 12.2 µM
GI50 [28]: 3.02 µM
TGI [28]: 14.1 µM
GI50 [29]: 3.17 µM
TGI [29]: 13.6 µM
GI50 [30]: 2.46 µM
TGI [30]: 8.57 µM
GI50 [31]: 1.2 µM
TGI [31]: 2.6 µM
GI50 [32]: 2.13 µM
TGI [32]: 22.3 µM
GI50 [33]: 2.38 µM
TGI [33]: 14 µM
GI50 [34]: 1.57 µM
TGI [34]: 6.68 µM
GI50 [35]: 2.63 µM
TGI [35]: 16.1 µM
GI50 [36]: 2 µM
TGI [36]: 5.82 µM
GI50 [37]: 1.43 µM
TGI [37]: 4.16 µM
GI50 [38]: 2.39 µM
TGI [38]: 8.49 µM
GI50 [39]: 3.1 µM
TGI [39]: 13.8 µM
GI50 [40]: 3.34 µM
TGI [40]: > 45.7 µM
GI50 [41]: 1.87 µM
TGI [41]: 8.9 µM
GI50 [42]: 1.85 µM
TGI [42]: 7.81 µM
GI50 [43]: 3.1 µM
TGI [43]: 18.3 µM
GI50 [44]: 2.72 µM
TGI [44]: 10.8 µM
GI50 [45]: 3.02 µM
TGI [45]: 11.7 µM
GI50 [46]: 3.68 µM
TGI [46]: 18.4 µM
GI50 [47]: 2.92 µM
TGI [47]: 15.9 µM
GI50 [48]: 3.31 µM
TGI [48]: 11.8 µM
GI50 [49]: 3.2 µM
TGI [49]: 40.4 µM
GI50 [50]: 2.72 µM
TGI [50]: 15.9 µM
GI50 [51]: 2.95 µM
TGI [51]: 19.4 µM
GI50 [52]: 2.6 µM
TGI [52]: 13.1 µM
GI50 [53]: 0.421 µM
TGI [53]: 3.3 µM
GI50 [54]: 2.27 µM
TGI [54]: 12.6 µM
GI50 [55]: 2.03 µM
TGI [55]: 6.45 µM
GI50 [56]: 2.3 µM
TGI [56]: 10.4 µM
GI50 [57]: 1.97 µM
TGI [57]: 9.99 µM
GI50 [58]: 3 µM
TGI [58]: 12.2 µM
